# Measured values reported in US8633168B2, “Inhibitors of S-adenosyl-L-methionine decarboxylase” (Genzyme Corporation, priority 2007, dated 2014).
# Like-named read-outs stand apart in the source and are kept apart here.
# Tests used:
# L. donovani (axenic) = experiment: Screening against L. donovani (axenic); assay type: cell-based; settings: Leishmania donovani; Screening Data
# [1] = Solubility in phosphate buffer; assay type: physicochemical; settings: for Sol.: Table 2, @ 7.4; for solubility at 16 hours: phosphate buffer
# Experimental: A stock solution for each test compound was prepared at 25 mM in DMSO. These were diluted into phosphate buffer and equilibrated for 16 hours at room temperature, and then filtered to remove precipitated compound. The UV absorbance of this equilibrated sample was compared to a single point reference standard.
# [2] = Plasma protein binding (RED), human; assay type: in vitro ADME
# Experimental: Rapid Equilibrium Dialysis device (RED) is a 96-well formatted dialysis with disposable inserts and Teflon base design providing short incubation time. The membrane in RED physically separates of bound and free drug. After 4 hr incubation at 37° C., drug concentrations at both plasma (e.g., human, rat, dog, monkey, mouse) and pH 7.4 PBS buffer sides was quantitated by LC/MS/MS and % bound drug in plasma was calculated.
# Schistosomes lavae = experiment: Screening against Schistosomes, larvae; assay type: cell-based; settings: Screening Data
# CYP2C19 = CYP2C19 (Homo sapiens, UniProt P33261); experiment: Cytochrome P450 inhibition, CYP2C19
# Text: (§1) This cytochrome P450 high throughput IC50 inhibition assay is utilized for screening potential inhibitors of the 5 major human CYP isozyme catalytic activities (CYP3A4, 2D6, 2C9, 2C19, and 1A2).
# T. brucei SAM DC = biological target: T1, T. brucei SAM DC (Trypanosoma brucei brucei, UniProt P50244); experiment: SAMDC enzyme inhibition assay (14CO2 release from 14C-AdoMet); assay type: biochemical; settings: Table 1; read-out: kinact/Ki^app against SAM DC enzyme by SW (converted)
# T1 construct: made in house
# T1 sequence (P50244 86-370 limits assumed): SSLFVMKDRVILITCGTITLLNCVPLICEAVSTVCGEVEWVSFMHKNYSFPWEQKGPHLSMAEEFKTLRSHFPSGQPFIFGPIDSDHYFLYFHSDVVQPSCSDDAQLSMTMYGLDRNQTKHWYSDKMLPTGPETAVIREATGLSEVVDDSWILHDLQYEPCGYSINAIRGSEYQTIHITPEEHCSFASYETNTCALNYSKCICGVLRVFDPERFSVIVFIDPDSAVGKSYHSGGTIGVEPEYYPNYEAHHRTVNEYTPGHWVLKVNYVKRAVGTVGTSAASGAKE
# Experimental: Steady state kinetics were performed as described (Kinch, L. N., J. R. Scott, B. Ullman, and M. A. Phillips. “Cloning and Kinetic Characterization of the Trypanosoma Cruzi S-Adenosylmethionine Decarboxylase.” Mol Biochem Parasitol 101, no. 1-2 (1999): 1-11. Beswick, T. C., E. K. Willert, and M. A. Phillips. “Mechanisms of Allosteric Regulation of Trypanosoma Cruzi S-Adenosylmethionine Decarboxylase.” Biochemistry 45, no. 25 (2006): 7797-807.). This assay measures the amount of ^14CO2 elaborated by enzymatic cleavage of ^14C-AdoMet. Reactions were carried out in assay buffer (100 mM Hepes pH 8.0, 50 mM NaCl, and 1 mM DTT) using the AdoMetDC/AdoMetDC Prozyme complex at ^14C-AdoMet concentrations of 10-160 μM with saturating putrescine (5 mM) (Willert E K, Phillips M A, 2007. “Allosteric regulation of an essential trypanosome polyamine biosynthetic enzyme by a catalytically dead homolog”. Proc Natl Acad Sci USA 104: 8275-8280). The reaction components were added to a test tube on ice to a total final volume of 100 μl. The reaction was initiated by the addition of enzyme (1-4 μM for T. brucei SAM DC), and a piece of filter paper soaked in saturated barium hydroxide was hung on the side of the test tube, which was then capped with a rubber stopper. Reactions were incubated at 37° C. in a water bath for 5-40 minutes. The assay was stopped by the addition of 200 μl 6 M HCl. The quenched reaction was kept at 37° C. for at least 30 minutes to allow for evolution of the CO2 from the solution. The filter paper was then added to 5 ml of scintillation fluid and counted. Test compounds were assessed over a range of 4 concentrations. Kinetic and regression analysis were performed using GraphPad Prism™.
# Purified, recombinant T. brucei SAM-decarboxylase and its prozyme are prepared and assayed in the laboratory of Dr. Phillips according to procedures from that lab. Kinch L N, Scott J R, Ullman B, Phillips M A, “Cloning and kinetic characterization of the Trypanosoma cruzi S-adenosylmethionine decarboxylase,” Mol Biochem Parasitol 101: 1-11. Willert E K, Fitzpatrick R, Phillips M A, 2007 (1999). Briefly, the assay employs ^14C-labelled S-adenosyl methionine (^14C-AdoMet). Reactions are carried out in buffer (100 mM Hepes pH 8.0, 50 mM NaCl, and 5 mM DTT) at ^14C-AdoMet concentrations of 10-160 μM with saturating putrescine (5 mM). The reaction components are added to a test tube on ice to a total final volume of 100 μl. The reaction is initiated by the addition of enzyme (1-4 μM for T. brucei SAM DC), and a piece of filter paper soaked in saturated barium hydroxide is hung on the side of the test tube, which is then capped with a rubber stopper. Reactions are incubated at 37° C. in a water bath for 5-40 minutes. The assay is stopped by the addition of 200 μl 6 M HCl. The quenched reaction is kept at 37° C. for at least 30 minutes to allow for evolution of the CO2 from the solution. The filter paper is then added to 5 ml of scintillation fluid and counted. Test compounds were assessed over a range of 4 concentrations. Kinetic and regression analysis are performed using GraphPad Prism.™ Results of this test are exemplified in FIG. 4.
# Mouse PK study = assay type: in vivo; settings: for t/2 in mouse: Table 3
# Experimental: The rodent PK study designs provide reliable estimation of PK parameters using fewer animals. Often two routes, PO and IV, were included in the rodent PK study protocols with three subjects in each dosing group (often PO at 10 mg/kg and IV at 3 mg/kg).
# CYP2C9 = CYP2C9 (Homo sapiens, UniProt P11712); experiment: Cytochrome P450 inhibition, CYP2C9
# Text: as §1
# Schistosomes adult = experiment: Screening against Schistosomes, adult; assay type: cell-based; settings: Screening Data
# [3] = Microsomal stability, rat; assay type: in vitro ADME; settings: for Microsomal stability (CL) rat: Table 2; for CLint scaled: Example 12 chart
# Experimental: Liver microsomes and hepatocytes represent an in vitro surrogate for assessing the phase I/II metabolic stability of new discovery leads. Following the incubation of the compounds with microsomes or hepatocytes of different species (e.g., human, rat, dog, monkey, mouse), the samples were transferred to 96 well plates for quantitation using LC/MS/MS. The % of compound remaining was measured and used to calculate clearance and % hepatic blood flow.
# CYP3A4 = CYP3A4 (Homo sapiens, UniProt P08684); experiment: Cytochrome P450 inhibition, CYP3A4
# Text: as §1
# [4] = aqueous buffer, kinetic from dmso stock, Example 12 chart, pH 7.4
# [5] = plasma, pH 7.4, Example 12 chart, human
# [6] = human, probe fluorometric substrates (not named)
# [7] = read-out: CYP IC50 2C19, Example 12 chart
# [8] = read-out: CYP IC50 2C9, Example 12 chart
# [9] = read-out: CYP IC50 3A4, Example 12 chart
# Chain of CYP3A4 (P08684 whole entry): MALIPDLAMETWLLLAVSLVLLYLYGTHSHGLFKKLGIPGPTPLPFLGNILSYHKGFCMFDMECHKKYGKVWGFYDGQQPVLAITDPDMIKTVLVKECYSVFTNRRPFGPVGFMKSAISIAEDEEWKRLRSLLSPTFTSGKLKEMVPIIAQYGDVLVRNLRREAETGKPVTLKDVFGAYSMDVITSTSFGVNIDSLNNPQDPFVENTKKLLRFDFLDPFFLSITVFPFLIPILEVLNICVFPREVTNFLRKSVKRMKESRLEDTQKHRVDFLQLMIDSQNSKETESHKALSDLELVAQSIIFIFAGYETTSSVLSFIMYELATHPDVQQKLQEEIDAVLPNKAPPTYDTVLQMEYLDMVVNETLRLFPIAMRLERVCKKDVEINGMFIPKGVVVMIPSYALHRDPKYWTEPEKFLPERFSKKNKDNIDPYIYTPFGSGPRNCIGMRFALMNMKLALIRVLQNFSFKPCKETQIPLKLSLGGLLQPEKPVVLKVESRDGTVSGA
# Chain of CYP2C19 (P33261 whole entry): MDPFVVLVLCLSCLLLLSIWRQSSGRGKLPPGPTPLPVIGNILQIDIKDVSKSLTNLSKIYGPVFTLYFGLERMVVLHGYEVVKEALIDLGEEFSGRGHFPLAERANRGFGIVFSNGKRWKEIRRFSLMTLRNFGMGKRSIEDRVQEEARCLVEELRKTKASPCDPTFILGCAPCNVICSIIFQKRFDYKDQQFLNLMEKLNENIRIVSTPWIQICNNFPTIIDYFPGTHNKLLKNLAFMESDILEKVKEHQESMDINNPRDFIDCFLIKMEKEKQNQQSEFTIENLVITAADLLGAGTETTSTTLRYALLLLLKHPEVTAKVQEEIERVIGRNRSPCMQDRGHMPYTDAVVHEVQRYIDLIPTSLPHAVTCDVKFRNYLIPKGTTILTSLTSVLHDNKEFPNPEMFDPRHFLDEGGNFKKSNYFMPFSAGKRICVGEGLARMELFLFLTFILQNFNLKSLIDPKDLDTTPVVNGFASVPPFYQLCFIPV
# Chain of CYP2C9 (P11712 whole entry): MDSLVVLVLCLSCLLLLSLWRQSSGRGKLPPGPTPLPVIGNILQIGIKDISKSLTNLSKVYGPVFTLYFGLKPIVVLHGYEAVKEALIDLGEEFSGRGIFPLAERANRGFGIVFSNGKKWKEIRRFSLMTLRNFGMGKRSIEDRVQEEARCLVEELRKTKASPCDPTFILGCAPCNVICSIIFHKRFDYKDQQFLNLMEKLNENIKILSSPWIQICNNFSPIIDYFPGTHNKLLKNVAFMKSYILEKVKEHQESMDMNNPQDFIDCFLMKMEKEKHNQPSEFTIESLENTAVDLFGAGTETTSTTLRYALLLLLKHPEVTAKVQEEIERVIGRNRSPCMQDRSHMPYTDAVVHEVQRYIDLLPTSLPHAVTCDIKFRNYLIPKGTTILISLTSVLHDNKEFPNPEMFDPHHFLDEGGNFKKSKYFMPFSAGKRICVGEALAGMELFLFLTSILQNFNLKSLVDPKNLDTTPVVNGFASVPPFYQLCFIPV
SMILES,IC50 (L. donovani (axenic)) [µM],Sol. [1],"solubility at 16 hours [1, 4] [µg/mL]","Plasma Protein Binding % human ([2]; Table 2, human plasma) [%]","fraction unbound at 4 hr [2, 5]",IC50 (Schistosomes lavae) [µM],kinact/KI (T. brucei SAM DC) [M⁻¹ s⁻¹],t/2 in mouse (Mouse PK study) [h],IC50 (Schistosomes adult) [µM],Microsomal stability (CL) rat [3] [mL/min/kg],CLint scaled ([3]; liver microsomes) [mL/min/kg],"Plasma Protein Binding % human ([2]; Example 12 chart, human) [%]","fraction unbound at 4 hr ([2]; pH 7.4, Table 2, human plasma)",IC50 (CYP2C19) [µM],IC50 (CYP2C19; [7]) [µM],IC50 (CYP2C9) [µM],IC50 (CYP2C9; [8]) [µM],IC50 (CYP3A4) [µM],IC50 (CYP3A4; [9]) [µM],also measured
CN(C/C=C\CN)C[C@H]1O[C@@H](n2cnc3c(N)ncnc32)[C@H](F)[C@@H]1O (stereo in doubt) [Compound 1],> 85,>47 (@ 7.4) ug/ml,> 47,23.3,0.767,> 10,3200,1.93,> 10,<11,< 7.7,,,,,,,,,IC50 (CYP2C19; [6]): > 5 µM; IC50 (CYP2C9; [6]): > 5 µM; IC50 (CYP3A4; [6]): > 5 µM
Cc1nc2c(N)ncnc2n1[C@@H]1O[C@H](CN(C)C/C=C\CN)[C@@H](O)[C@H]1O (stereo in doubt) [Compound 4],> 85,>49 (@ 7.4) ug/ml,> 49,,,> 10,130000,7.43,> 10,<11,< 7.7,41.2,0.588,> 5,> 5,> 5,> 5,> 5,> 5,"protein binding relative to MDL73811 ([2]; compared with MDL73811 (human and mouse plasma in Table 2)): approximately half; t/2, fold greater than that for MDL-73811 (Mouse PK study; vs MDL-73811): ~3 fold"
CN(C/C=C\CN)C[C@H]1O[C@@H](n2cnc3c(N)ncnc32)[C@@H](F)[C@@H]1O [Compound 2],> 85,>47 (@ 7.4) ug/ml,> 47,32.2,0.678,> 10,32700,,> 10,<11,< 7.7,,,> 5,> 5,> 5,> 5,> 5,> 5,
CN(C/C=C\CN)C[C@H]1O[C@@H](n2cnc3c(N)nc(Cl)nc32)[C@H](O)[C@@H]1O [Compound 3],> 85,>51 (@ 7.4) ug/ml,> 51,,,> 10,300,1.66,> 10,<11,< 7.7,39,0.61,> 5,> 5,> 5,> 5,> 5,> 5,
"CN(C/C=C\CN)CC1OC(n2cnc3c(N)ncnc32)C(O)C1O (centres unmarked) [MDL-73811, reference compound]",> 85,>47 (@ 7.4) ug/ml,,,,> 10,24900,2.48,> 10,<11,,72.9,,> 5,> 5,> 5,> 5,> 5,,"solubility [1, 4]: > 47 µg/mL; fraction unbound ([2]; pH 7.4, Table 2, human plasma): 0.271; CLint scaled ([3]; microsomes): < 7.7 mL/min/kg; IC50 (CYP3A4; human): > 5 µM"
